# Where two headings read alike, the source gives them in different places. Non-standard residues stand in square brackets, D forms with d. Residues, ends and D or L forms follow the SMILES beside them. No end group written: not given here. NMeL = CN[C@@H](CC(C)C)C(=O)O; βAla = NCCC(=O)O
# T1: human recombinant NK2 receptors (Homo sapiens, UniProt P21452)
# T1 sequence (P21452 1-398): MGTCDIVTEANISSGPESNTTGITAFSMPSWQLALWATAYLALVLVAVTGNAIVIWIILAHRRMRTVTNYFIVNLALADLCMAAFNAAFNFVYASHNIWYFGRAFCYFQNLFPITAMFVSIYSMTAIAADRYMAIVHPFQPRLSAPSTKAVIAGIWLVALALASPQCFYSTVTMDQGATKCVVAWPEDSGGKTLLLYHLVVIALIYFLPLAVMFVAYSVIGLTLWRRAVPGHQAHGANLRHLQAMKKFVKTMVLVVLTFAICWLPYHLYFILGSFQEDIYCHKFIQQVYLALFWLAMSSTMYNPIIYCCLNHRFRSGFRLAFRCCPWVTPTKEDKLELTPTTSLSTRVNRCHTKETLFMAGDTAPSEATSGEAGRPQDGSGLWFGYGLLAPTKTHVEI
# T2: NK2 receptor (Homo sapiens, UniProt P21452)
# T2 chain: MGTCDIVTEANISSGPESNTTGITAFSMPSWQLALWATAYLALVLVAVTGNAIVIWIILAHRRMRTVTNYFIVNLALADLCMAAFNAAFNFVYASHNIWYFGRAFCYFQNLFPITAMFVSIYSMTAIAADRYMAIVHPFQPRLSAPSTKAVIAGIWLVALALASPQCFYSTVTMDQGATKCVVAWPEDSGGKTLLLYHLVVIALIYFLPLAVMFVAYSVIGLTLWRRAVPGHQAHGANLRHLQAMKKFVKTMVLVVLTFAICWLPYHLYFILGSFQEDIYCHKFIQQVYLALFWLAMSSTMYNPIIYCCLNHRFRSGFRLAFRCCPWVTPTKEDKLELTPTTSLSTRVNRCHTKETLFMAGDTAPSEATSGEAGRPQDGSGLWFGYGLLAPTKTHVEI
# How the values were obtained:
# [1] = biological target: T3, human recombinant NK1 receptors (Homo sapiens, UniProt P25103); test: Displacement of [^3H]-Septide binding to CHO-hNK1 membranes (septide site); settings: for [^3H]-Septide binding Slope: Hill slope of displacement curve
# T3 sequence (P25103 whole entry): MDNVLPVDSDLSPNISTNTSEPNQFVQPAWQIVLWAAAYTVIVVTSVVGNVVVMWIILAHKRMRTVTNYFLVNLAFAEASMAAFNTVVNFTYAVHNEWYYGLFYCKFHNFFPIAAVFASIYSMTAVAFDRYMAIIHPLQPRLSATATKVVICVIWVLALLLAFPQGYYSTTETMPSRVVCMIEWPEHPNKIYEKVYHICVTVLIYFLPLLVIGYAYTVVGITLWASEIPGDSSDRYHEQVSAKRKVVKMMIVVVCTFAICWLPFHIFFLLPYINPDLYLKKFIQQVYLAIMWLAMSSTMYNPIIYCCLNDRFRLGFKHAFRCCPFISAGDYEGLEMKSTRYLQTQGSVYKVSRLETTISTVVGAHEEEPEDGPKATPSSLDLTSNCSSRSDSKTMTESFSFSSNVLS
# Experimental: Protein expression was induced by addition of 5 mM sodium butyrate to the culture medium. […] The cell suspension was collected, placed on ice and centrifuged for 5 min at 4°C and 1200 rpm in a Beckman GS6R centrifuge. After removal of the supernatant the cell pellet was washed and collected by re-suspension in PBS and centrifugation. The final pellet was weighed and frozen at -80°C until use. Frozen pellets were thawed and homogenized in 10 volumes (w/v) of membrane preparation buffer (50 mM HEPES pH 7.4, 1 mM EDTA, 50 μg/mL bacitracin and protease inhibitors) using a Polytron Ultraturrax (twice for 15 s per cycle). The homogenate was centrifuged for 20 min at 4°C and 18500 rpm in a SL-50T Sorvall rotor and the pellet was re-suspended in membrane preparation buffer and re-homogenized as before. After centrifugation for 20 min at 4°C and 18500 rpm, the pellets were re-suspended in 5 volumes of membrane preparation buffer and divided into aliquots before freezing at -80°C. Protein concentration was determined using BioRad Protein Assay (Milan, Italy) with a BSA standard curve. Stock solutions of test compounds (10 mM) were prepared in DMSO and stored at -20°C until use. […] The goodness of fit between One-Site and Two-Site models was examined using Akaike's Information Corrected Criteria (AICC; [23]) in SAS v9.4 (SAS Institute, Cary NC) in order to select the best model for the data generated. […] Data from displacement experiments were plotted as the log [inhibitor concentration] (X axis) versus response expressed as TB in cpm (Y axis).
# [2] = biological target: T3, human recombinant NK1 receptors; test: cell-based; type: cell-based
# Experimental: (§1) CHO-hNK2 and CHO-hNK1 cells were transiently transfected with a CRE-LUC reporter construct using Lipofectamine 2000. At 24 h post-transfection, cells were plated at a density of 20,000 cells/well in a 96-well culture plate. […] Luciferase expression was measured after 5 h of incubation at 37°C (in the presence of 5% CO2) by adding Firefly Luciferase reagent, followed by Renilla Luciferase reagent. Luminescence was measured by using an Envision Multilabel flash lamp reader after addition of the first and second reagents. Data were normalized by calculating the ratio of the Firefly luminescence from the CRE reporter to the Renilla luminescence from the control Renilla Luciferase vector.
# [3] = biological target: T3, human recombinant NK1 receptors; test: cell-based
# Experimental: (§2) Human recombinant NK2 and NK1 receptors were generated using stably transfected CHO cells (CHO-hNK2 and CHO-hNK1, respectively). Human NK2 or NK1 receptor expressing vectors from Genecopeia (Rockville, USA) were transfected in CHO cells using the standard FuGENE protocol and cells were selected using 450 μg/mL geneticin (G418). Clones expressing the receptors were selected by functional coupling to calcium using FLIPR and a single clone for each receptor subtype was selected for expansion and stable cell line generation. Cells were cultured in a humidified incubator with 5% CO2 in F12K medium containing 10% heat inactivated FBS and 450 μg/mL geneticin and passaged on reaching 80–90% confluence.
# (§3) The agonist efficacy of the test compounds at recombinant human NK1 or NK2 receptors expressed in CHO cells was assessed by measuring the intracellular calcium response using the calcium-sensitive dye Fluo-4 AM (Eugene, OR, USA) and a Fluorometric Imaging Plate Reader (FLIPR, Molecular Devices, CA, USA). CHO-hNK1 and CHO-hNK2 cells were seeded into black walled clear-bottom 384-well plates at a density of 10,000 and 15,000 cells per well in 50 μL culture media, respectively, and grown overnight at 37°C in a humidified CO2-incubator. Cells were washed in washing buffer using an EMBLA 384 plate washer, leaving 20 μL of buffer per well after the final aspiration. Cells were then incubated at 37°C with the cytoplasmic Ca^2+ indicator Fluo-4 AM (final concentration 1 μM) in assay buffer (20 mM HEPES, 145 mM NaCl, 5 mM KCl, 5.5 mM glucose, 1 mM MgCl2 and 2 mM CaCl2, pH 7.4, 0.05% Pluronic F-127 and 0.1% BSA) containing 2.5 mM probenecid for 45–60 min (cell loading). Cells were then washed 3 times in washing buffer (20 mM HEPES, 145 mM NaCl, 5 mM KCl, 5.5 mM glucose, 1 mM MgCl2 and 2 mM CaCl2, pH 7.4 and 2.5 mM probenecid) using an EMBLA 384 plate washer, leaving 30 μL of buffer in each well after the last wash. Loaded cell plates were transferred to the FLIPR and calcium responses were monitored as described below. […] Concentration response curves of test compounds were generated in duplicate on at least two different occasions from the same stock solutions. Test solutions were prepared from 10 mM stock solutions in DMSO and 1 μL of each solution was stamped into V-bottom assay plates containing 49 μL assay buffer. The final concentration of DMSO was 0.5% in each well.
# [4] = biological target: T1, human recombinant NK2 receptors; test: cell-based; settings: for NK1/NK2 ratio of EC50s for intracellular calcium response: NK1 EC50 / NK2 EC50
# Experimental: as §2, §3
# [5] = biological target: T1, human recombinant NK2 receptors; test: Displacement of [^125I]-NKA binding to CHO-hNK2 membranes
# [6] = biological target: T1, human recombinant NK2 receptors; test: cell-based; settings: for EC50: CHO-hNK2 cells
# Experimental: as §1
# NK2 receptor = biological target: T2, NK2 receptor; test: [125I]-NKA displacement
# [7] = 5.0 nM [^3H]-Septide, CHO-hNK1 membranes 20 μg/well, 23°C, 1 h, mean ± SD, read-out: [^3H]-Septide binding pKi (converted)
# [8] = displacement of [^3H]-Septide binding, read-out: NK1 [^3H]-Septide Ki
# [9] = CHO-hNK1 cells, mean ± SD, read-out: cAMP stimulation pEC50 (converted)
# [10] = CHO-hNK1 cells, read-out: NK1 EC50 cAMP stimulation
# [11] = Intracellular Ca^2+ pEC50, CHO-hNK1 cells, mean ± SD
# [12] = NK1 EC50 intracellular calcium response, CHO-hNK1 cells
# [13] = Intracellular Ca^2+ pEC50, CHO-hNK2 cells, mean ± SD
# [14] = NK2 EC50 intracellular calcium response, CHO-hNK2 cells
# [15] = [^125I]-NKA binding pKi, 0.1 nM [^125I]-NKA, CHO-hNK2 membranes 6 μg/well, 23°C, 3 h, mean ± SD
# [16] = mean ± SD, read-out: cAMP stimulation pEC50 (converted)
# [17] = read-out: NK2 EC50 cAMP stimulation
# [18] = CHO-hNK1 cells, % of maximal response observed with substance P, mean ± SD
# [19] = 5.0 nM [^3H]-Septide, CHO-hNK1 membranes 20 μg/well, 23°C, 1 h, mean ± SD
# [20] = 5.0 nM [^3H]-Septide, 23°C, 1 h, mean ± SD
# [21] = CHO-hNK2 cells, % of maximal response observed with NKA, mean ± SD
Molecule,"Ki [1, 7]","Ki [1, 8]",cAMP stimulation % Max [2],"EC50 [2, 9]","EC50 [2, 10]",Intracellular Ca^2+ % Max [3],"EC50 [3, 11]","EC50 [3, 12]",Intracellular Ca^2+ % Max [4],"EC50 [4, 13]","EC50 [4, 14]","Ki [5, 15]",cAMP stimulation % Max [6],"EC50 [6, 16]","EC50 [6, 17]","[^3H]-Septide binding pKi [1, 19]","[^3H]-Septide binding Slope [1, 20]","Intracellular Ca^2+ % Max [3, 18]","Intracellular Ca^2+ pEC50 ([3]; CHO-hNK1 cells, mean ± SD)","Intracellular Ca^2+ % Max [4, 21]",further results
"CCCC[C@H](NC(=O)[C@H](CC(C)C)N(C)C(=O)CNC(=O)[C@@H](NC(=O)[C@H](Cc1ccccc1)NC(=O)[C@H](CCCCN)NC(=O)[C@@H](N)CC(=O)O)C(C)C)C(N)=O [[Lys^5,MeLeu^9,Nle^10]-NKA(4-10), Asp-Lys-Phe-Val-Gly-Leu(NMe)-Nle-NH2]",589 nM,589 nM,94.3 ± 21.6%,1.78 nM,1.78 nM,107.6 ± 3.1%,15.5 nM,15.5 nM,101.4 ± 3.0%,0.148 nM,0.15 nM,0.871 nM,107.4 ± 7.36%,0.024 nM,0.024 nM,,,,,,"Fold more selective than NKA for activation of NK2 over NK1 receptors (calcium) ([4]; from EC50 ratios): approximately 100 fold; Ki ([5]; NK2 [^125I]-NKA Ki, displacement of [^125I]-NKA binding): 0.87 nM; Fold more selective for NK2 over septide site of NK1 receptor compared with NKA (binding) ([5]; from Ki ratios): more than 28 fold"
"CSCC[C@H](NC(=O)[C@H](CC(C)C)NC(=O)CNC(=O)[C@@H](NC(=O)[C@H](Cc1ccccc1)NC(=O)[C@H](CO)NC(=O)[C@H](CC(=O)O)NC(=O)[C@@H](NC(=O)[C@H](CCCCN)NC(=O)[C@@H](N)Cc1c[nH]cn1)[C@@H](C)O)C(C)C)C(N)=O [NKA, reference compound]",,,,,,,,,,,,,,,,,,,,,"cAMP stimulation % Max [2, 18]: 100.5 ± 13.6%"
"CSCC[C@H](NC(=O)[C@H](CC(C)C)N(C)C(=O)CNC(=O)[C@@H](NC(=O)[C@H](Cc1ccccc1)NC(=O)[C@H](CCCNC(=N)N)NC(=O)[C@@H](N)CC(=O)O)C(C)C)C(N)=O [[Arg^5,MeLeu^9]-NKA(4-10), Asp-Arg-Phe-Val-Gly-(NMe-Leu)-Met-NH2] (H-DRFVG[NMeL]M-NH2)",,,,,,,,,,0.162 nM,,0.126 nM,,,,7.68 ± 0.16,-0.75 ± 0.03,99.9 ± 13.3%,9.52 ± 0.29,111.5 ± 3.7%,"NK1/NK2 ratio of EC50s for intracellular calcium response [4]: 2; [^125I]-NKA binding Slope ([5]; Hill slope of displacement curve, 0.1 nM [^125I]-NKA, 23°C, 3 h, mean ± SD): -0.90 ± 0.07; NK1/NK2 ratio of Ki values ([5]; NK1 [^3H]-Septide Ki / NK2 [^125I]-NKA Ki): 174"
"CSCC[C@H](NC(=O)[C@H](CC(C)C)NC(=O)CCNC(=O)[C@@H](NC(=O)[C@H](Cc1ccccc1)NC(=O)[C@H](CO)NC(=O)[C@@H](N)CC(=O)O)C(C)C)C(N)=O [[β-Ala^8]-NKA(4–10), Asp-Ser-Phe-Val-[β-Ala]-Leu-Met-NH2] (H-DSFV[βAla]LM-NH2)",2090 nM,2090 nM,97.3 ± 24.8%,5.62 nM,5.62 nM,106.0 ± 11.5%,46.8 nM,46.8 nM,102.2 ± 7.4%,0.871 nM,0.86 nM,,84.6 ± 13.1%,0.0234 nM,0.023 nM,,,,,,
"CSCC[C@H](NC(=O)[C@H](CC(C)C)N(C)C(=O)CNC(=O)[C@@H](NC(=O)[C@H](Cc1ccccc1)NC(=O)[C@H](CCCCN)NC(=O)[C@@H](N)CC(=O)O)C(C)C)C(N)=O [[Lys^5,MeLeu^9]-NKA(4–10), Asp-Lys-Phe-Val-Gly-(NMe-Leu)-Met-NH2]",,,,,,,,,,0.145 nM,,,,,,7.30 ± 0.16,-0.89 ± 0.01,106.7 ± 5.7%,9.02 ± 0.39,88.2 ± 11.4%,NK1/NK2 ratio of EC50s for intracellular calcium response [4]: 7; NK1/NK2 ratio of Ki values [5]: 251; [^125I]-NKA binding Slope [5]: -0.84 ± 0.06; [^125I]-NKA binding pKi [5]: 9.70 ± 0.16
DSFVGLM-NH2 [NKA(4-10)],,,,,,,,,,,,,,,,,,,,,Ki (NK2 receptor): 2.3 nM
